Experimental findings from PubChem BioAssay AID296 (DTP/NCI, 2004) are described below.

Values joined by “and” are separate entries in the source; they are usually repeats but may differ in a detail not shown here. Equal entries are not always repeated. Results filed as inconclusive are left out. Where a SMILES comes first, the peptide text is derived from it. The star is where a group is joined. Trt = c1ccc(C(c2ccccc2)(c2ccccc2)*)cc1; Cbz = O=C(OCc1ccccc1)*; Bn = c1ccc(C*)cc1; βAla = NCCC(=O)O

The test system of this test is MX-1 breast xenograft, nude mice, tumor weight T/C. In words: NCI In Vivo Anticancer Drug Screen. Data for tumor model Human Mammary Carcinoma MX-1 Xenograft (intrarenal inoculation) in NU/NU Swiss (nude) mice. Conditions: endpoint: mean tumor weight change, higher = larger tumour. As for the experimental part: The antitumor activity of compounds was measured in mice bearing transplantable tumors. Survival or tumor size were measured and the results are expressed as the measurement made in the treated group (T) divided by the measurement made in the vehicle treated control group (C). The tumor model used in this assay is Human Mammary Carcinoma MX-1 Xenograft (intrarenal inoculation) in NU/NU Swiss (nude) mice
(A xenograft is tissue or cells of one species grown in another, often human tumour cells in immunodeficient mice.)

The mark [1] stands for this setting: dose: 75.0 mg/kg/injection, schedule: Q04DX003 (sc), vehicle: Klucel (hydroxypropylcellulose) (HPC).
Setting [2] is: dose: 150.0 mg/kg/injection, schedule: Q04DX003 (sc), vehicle: Klucel (hydroxypropylcellulose) (HPC).
The mark [3] stands for this setting: dose: 600.0 mg/kg/injection, schedule: Q04DX003 (sc), vehicle: Klucel (hydroxypropylcellulose) (HPC).
The mark [4] stands for this setting: dose: 300.0 mg/kg/injection, schedule: Q04DX003 (sc), vehicle: suspension in saline.
[5] abbreviates: dose: 150.0 mg/kg/injection, schedule: Q04DX003 (ip), vehicle: saline with Tween-80.
The mark [6] stands for this setting: dose: 300.0 mg/kg/injection, schedule: Q04DX003 (ip), vehicle: saline with Tween-80.
Where [7] appears, read: dose: 100.0 mg/kg/injection, schedule: Q01DX010 (sc), vehicle: saline.
The mark [8] stands for this setting: dose: 25.0 mg/kg/injection, schedule: Q01DX010 (sc), vehicle: Klucel (hydroxypropylcellulose) (HPC).
The mark [9] stands for this setting: dose: 50.0 mg/kg/injection, schedule: Q01DX010 (sc), vehicle: Klucel (hydroxypropylcellulose) (HPC).
Where [10] appears, read: dose: 400.0 mg/kg/injection, schedule: Q01DX010 (sc), vehicle: Klucel (hydroxypropylcellulose) (HPC).
Setting [11] is: dose: 100.0 mg/kg/injection, schedule: Q04DX003 (sc), vehicle: saline.
[12] abbreviates: dose: 400.0 mg/kg/injection, schedule: Q04DX003 (sc), vehicle: saline.

Consider `O=C1C2(Cl)C3(Cl)C4(Cl)C(Cl)(Cl)C5(Cl)[C@]3(Cl)C1(Cl)[C@]5(Cl)C24Cl` (stereo not given in full), for which the T/C (dose: 37.5 mg/kg/injection, schedule: Q04DX003 (sc), vehicle: Klucel (hydroxypropylcellulose) (HPC)) is 120 % of control and the T/C under setting [1] is 121 % of control.

On to `Cn1/c2cc/c1=C(\c1ccc(S(=O)(=O)O)cc1)c1ccc([n-]1)/C(c1ccc(S(=O)(=O)O)cc1)=c1/cc/c([nH]1)=C(\c1ccc(S(=O)(=O)O)cc1)c1ccc([n-]1)/C=2c1ccc(S(=O)(=O)O)cc1.O.O=S(=O)(O)C(F)(F)F.[Cu+2]`, for which the T/C under setting [2] was 54 % of control and the T/C under setting [3] was 94 % of control.

As to `C/C=C/c1cc2c(c(=O)o1)C(=O)[C@@H](O)[C@H](C)O2`, the T/C reads like this: (dose: 50.0 mg/kg/injection, schedule: Q04DX003 (sc), vehicle: saline with Tween-80) 114 % of control; (dose: 100.0 mg/kg/injection, schedule: Q04DX003 (sc), vehicle: saline with Tween-80) 93 % of control; (dose: 200.0 mg/kg/injection, schedule: Q04DX003 (sc), vehicle: saline with Tween-80) 101 % of control.

As to `COCC(O)Cn1ccnc1[N+](=O)[O-]` (stereo not given), the T/C is 202 % of control under setting [4]; 95 % of control (dose: 600.0 mg/kg/injection, schedule: Q04DX003 (sc), vehicle: suspension in saline); 108 % of control (dose: 1200.0 mg/kg/injection, schedule: Q04DX003 (sc), vehicle: suspension in saline).

As to `CCCCCn1c(C)cc(/C=C\c2ccc3cc(C)ccc3[n+]2C)c1C`, the T/C runs as follows: (dose: 0.38 mg/kg/injection, schedule: Q04DX003 (sc), vehicle: Klucel (hydroxypropylcellulose) (HPC)) 174 % of control; (dose: 0.75 mg/kg/injection, schedule: Q04DX003 (sc), vehicle: Klucel (hydroxypropylcellulose) (HPC)) 62 % of control; (dose: 1.5 mg/kg/injection, schedule: Q04DX003 (sc), vehicle: Klucel (hydroxypropylcellulose) (HPC)) 109 % of control; (dose: 3.0 mg/kg/injection, schedule: Q04DX003 (sc), vehicle: Klucel (hydroxypropylcellulose) (HPC)) 74 % of control.

Take `COc1ccc2c(c1[N+](=O)[O-])CC[C@@H]1[C@@H]2CC[C@]2(C)C(=O)CC[C@@H]12`: the T/C by setting is: under setting [5], 90 % of control; under setting [6], 111 % of control; (dose: 1200.0 mg/kg/injection, schedule: Q04DX003 (ip), vehicle: saline with Tween-80) 102 % of control.

`COc1cc(C)c2c(c1C=O)Oc1c(c(C)c(O)c3c1C(O)OC3=O)OC2=O` (stereo not given): the T/C was 90 % of control (dose: 6.25 mg/kg/injection, schedule: Q01DX010 (sc), vehicle: saline); 62 % of control and 78 % of control (dose: 12.5 mg/kg/injection, schedule: Q01DX010 (sc), vehicle: saline); 96 % of control and 118 % of control (dose: 25.0 mg/kg/injection, schedule: Q01DX010 (sc), vehicle: saline); 67 % of control and 88 % of control (dose: 50.0 mg/kg/injection, schedule: Q01DX010 (sc), vehicle: saline); 98 % of control under setting [7].

Turning to `Cc1ccc(S(=O)(=O)N/N=C/C(=O)O)cc1`, the T/C was 90 % of control under setting [8]; 103 % of control under setting [9]; 58 % of control under setting [10]; 71 % of control (dose: 800.0 mg/kg/injection, schedule: Q01DX010 (sc), vehicle: Klucel (hydroxypropylcellulose) (HPC)).

Turning to `COc1cc([C@@H]2c3cc4c(c(O)c3C[C@H]3COC(=O)[C@@H]32)OCO4)cc(OC)c1OC`, the T/C was 78 % of control (dose: 2.0 mg/kg/injection, schedule: Q01DX010 (sc), vehicle: saline) and 56 % of control (dose: 4.0 mg/kg/injection, schedule: Q01DX010 (sc), vehicle: saline).

Regarding `C[CH2][Pb]([CH2]C)([CH2]C)[O]C(=O)COc1ccccc1`, the T/C reads like this: (dose: 4.5 mg/kg/injection, schedule: Q04DX003 (sc), vehicle: saline with Tween-80) 66 % of control; (dose: 9.0 mg/kg/injection, schedule: Q04DX003 (sc), vehicle: saline with Tween-80) 112 % of control; (dose: 18.0 mg/kg/injection, schedule: Q04DX003 (sc), vehicle: saline with Tween-80) 79 % of control.

Consider `C(CC1CO1)C1CO1` (stereo not given), for which the T/C by setting is: under setting [7], -59 % of control and -41 % of control; (dose: 150.0 mg/kg/injection, schedule: Q04DX003 (sc), vehicle: suspension in saline) 1 % of control and 11 % of control; under setting [4], 4 % of control.

In the case of `Cn1c(=O)[nH]c2nncnc2c1=O`, the T/C (dose: 125.0 mg/kg/injection, schedule: Q04DX003 (sc), vehicle: water) is 92 % of control.

For the compound `COC(=O)C(CSC(c1ccccc1)(c1ccccc1)c1ccccc1)NC(=O)C(CSCc1ccccc1)NC(=O)CCNC(=O)OCc1ccccc1` (stereo not given) ({Cbz-βAla}-Cys(Bn)-Cys(Trt)-OMe; configuration not given here), the T/C was 99 % of control under setting [1]; 49 % of control under setting [2]; 63 % of control (dose: 300.0 mg/kg/injection, schedule: Q04DX003 (sc), vehicle: Klucel (hydroxypropylcellulose) (HPC)); 60 % of control under setting [3].

As for `CC1/C=C/C=C/CC/C=C/C=C/C=C/C=C/C(OC2OC(C)C(O)C(N)C2O)CC2OC(CC(O)C(O)CCC(O)CC(O)CC(O)CC(=O)OC(C)C(C)C1O)CC(O)C2C(=O)O` (stereo not given), the T/C under setting [5] was 59 % of control and the T/C under setting [6] was 55 % of control.

Turning to `N=C(N)SCc1cccc2c(=O)cc(-c3ccccc3)oc12`, the T/C under setting [4] is 110 % of control.

Turning to `CC(Cc1ccc(O)c(O)c1)C(C)Cc1ccc(O)c(O)c1` (stereo not given), the T/C is 109 % of control (dose: 150.0 mg/kg/injection, schedule: Q04DX003 (sc), vehicle: saline + alcohol); 92 % of control (dose: 300.0 mg/kg/injection, schedule: Q04DX003 (sc), vehicle: saline + alcohol); 92 % of control (dose: 1200.0 mg/kg/injection, schedule: Q04DX003 (sc), vehicle: saline + alcohol).

For `c1csc(C[N+]23CN4CN(CN(C4)C2)C3)c1`, the T/C is, setting by setting: under setting [11], 108 % of control; under setting [12], 93 % of control.

As to `Nc1n[nH]c(N)n1`, the T/C reads like this: (dose: 200.0 mg/kg/injection, schedule: Q01DX010 (sc), vehicle: saline) 92 % of control; (dose: 400.0 mg/kg/injection, schedule: Q01DX010 (sc), vehicle: saline) 94 % of control; (dose: 800.0 mg/kg/injection, schedule: Q01DX010 (sc), vehicle: saline) 111 % of control.

On to `NCCCNCCSP(=O)(O)O`, for which the T/C runs as follows: under setting [11], 98 % of control; (dose: 200.0 mg/kg/injection, schedule: Q04DX003 (sc), vehicle: saline) 80 % of control; under setting [12], 91 % of control.

For `O=C1c2c(O)cccc2-c2nn(CCNCCO)c3ccc(NCCNCCO)c1c23`, for the setting “dose: 11.0 mg/kg/injection, schedule: Q04DX003 (ip), vehicle: water”, the T/C is -100 % of control.

Take `c1ccc2sc(SSN3CC4CCC(CC4)C3)nc2c1`: the T/C by setting is: (dose: 200.0 mg/kg/injection, schedule: Q01DX010 (sc), vehicle: saline with Tween-80) 156 % of control; (dose: 400.0 mg/kg/injection, schedule: Q01DX010 (sc), vehicle: saline with Tween-80) 95 % of control.

As for `O=C(NC(Cc1ccc(I)cc1)C(=O)O)c1ccc(Br)cc1` (stereo not given), where the note is “dose: 75.0 mg/kg/injection, schedule: Q04DX003 (ip), vehicle: sodium bicarbonate”, the T/C was -67 % of control.

In the case of `COc1ccc([I+]c2cccc(Cl)c2)cc1Cl`, the T/C was 114 % of control (dose: 150.0 mg/kg/injection, schedule: Q04DX003 (sc), vehicle: saline with Tween-80); 100 % of control (dose: 300.0 mg/kg/injection, schedule: Q04DX003 (sc), vehicle: saline with Tween-80); 84 % of control (dose: 600.0 mg/kg/injection, schedule: Q04DX003 (sc), vehicle: saline with Tween-80); 41 % of control (dose: 1200.0 mg/kg/injection, schedule: Q04DX003 (sc), vehicle: saline with Tween-80).

As to `C=CCNc1ccc(C)cc1`, the T/C is 97 % of control under setting [8]; 69 % of control and 70 % of control under setting [9]; 70 % of control and 76 % of control (dose: 200.0 mg/kg/injection, schedule: Q01DX010 (sc), vehicle: Klucel (hydroxypropylcellulose) (HPC)); 16 % of control under setting [10].
